Data: ChEMBL document CHEMBL6074679, “Diastereoselective synthesis and biological evaluation of new fluorine-containing α-aminophosphonates as anticancer agents and scaffold to human urokinase plasminogen activator inhibitors” (Eur J Med Chem, 2025)
pIC50: −log10 of the molar value.

Experiments:
[1] = tested on: OVCAR-3; test: Cytotoxicity against human OVCAR-3 cells incubated for 48 hrs by MTT assay; assay type: functional, cell-based; settings: OVCAR-3, 48 h
[2] = Cytotoxicity against human MRC5 cells incubated for 48 hrs by MTT assay; assay type: toxicity, cell-based
[3] = tested on: U-87 MG; test: Cytotoxicity against human U-87 MG cells incubated for 48 hrs by MTT assay; assay type: functional, cell-based, U-87MG ATCC
[4] = tested on: HepG2; test: Cytotoxicity against human HepG2 cells incubated for 48 hrs by MTT assay; assay type: functional, cell-based; settings: HepG2, 48 h
[5] = tested on: Caco-2; test: Cytotoxicity against human Caco-2 cells incubated for 48 hrs by MTT assay; assay type: functional, cell-based; settings: Caco-2, 48 h
[6] = tested on: SK-OV-3; test: Cytotoxicity against human SK-OV-3 cells incubated for 48 hrs by MTT assay; assay type: functional, cell-based; settings: SK-OV-3, 48 h
[7] = tested on: U-118-MG; test: Cytotoxicity against human U-118 MG cells incubated for 48 hrs by MTT assay; assay type: functional, cell-based
[8] = tested on: MDA-MB-231; test: Cytotoxicity against human MDA-MB-231 cells incubated for 48 hrs by MTT assay; assay type: functional, cell-based; settings: MDA-MB-231, 48 h
[9] = tested on: A549; test: Cytotoxicity against human A549 cells incubated for 48 hrs by MTT assay; assay type: functional, cell-based; settings: A549, 48 h
[10] = tested on: HeLa; test: Cytotoxicity against human HeLa cells incubated for 48 hrs by MTT assay; assay type: functional, cell-based
[11] = tested on: U-251; test: Cytotoxicity against human U-251MG cells incubated for 48 hrs by MTT assay; assay type: functional, cell-based; settings: U-251, 48 h
[12] = target: Urokinase-type plasminogen activator (Homo sapiens, UniProt P00749); test: Inhibition of human urokinase uPA using Z-Gly-Gly-Arg-AMC as substrate by fluorescence plate reader assay

## CCOP(=O)(OCC)C(N[C@H](C)c1ccccc1)c1ccc(F)cc1F (stereo partly specified)
[1]
  pIC50: 5.25
[2]
  IC50 at 48 h: 16.6 µM
[3]
  pIC50: 5.11
[4]
  pIC50: 3.93
[5]
  pIC50: 5.65
[6]
  pIC50: 5.49
[7]
  pIC50: 4.46
[8]
  pIC50: 4.93
[9]
  pIC50: 4.45
[10]
  pIC50: 5.39
[11]
  pIC50: 5.25

## COP(=O)(OC)C(N[C@@H](C)C(C)(C)C)c1ccc(F)cc1F (stereo partly specified)
[1]
  pIC50: 4.18
[2]
  IC50 at 48 h: 82.2 µM
[3]
  pIC50: 4.39
[4]
  pIC50: 4.23
[5]
  pIC50: 5.19
[6]
  pIC50: 3.88
[7]
  pIC50: 4.06
[8]
  pIC50: 3.78
[9]
  pIC50: 5.74
[10]
  pIC50: 5.01
[11]
  pIC50: 3.93

## COP(=O)(OC)C(N[C@@H](C)C(C)(C)C)c1ccccc1F (stereo partly specified)
[1]
  pIC50: 4.29
[2]
  IC50 at 48 h: 34.4 µM
[3]
  pIC50: 5.49
[4]
  pIC50: 4.22
[5]
  pIC50: 5.89
[6]
  pIC50: 4.66
[7]
  pIC50: 4.09
[8]
  pIC50: 3.80
[9]
  pIC50: 4.26
[10]
  pIC50: 4.67
[11]
  pIC50: 5.05

## COc1ccc([C@@H](C)NC(c2ccc(F)cc2)P(=O)(OC(C)C)OC(C)C)cc1 (stereo partly specified)
[1]
  pIC50: 4.35
[2]
  IC50 at 48 h: 5.9 µM
[3]
  pIC50: 4.66
[4]
  pIC50: 5.11
[5]
  pIC50: 5.19
[6]
  pIC50: 5.08
[12]
  pIC50: 3.31
[7]
  pIC50: 4.74
[8]
  pIC50: 4.47
[9]
  pIC50: 4.42
[10]
  pIC50: 5.50
[11]
  pIC50: 4.57

## COc1ccc([C@@H](C)NC(c2c(F)c(F)c(F)c(F)c2F)P(=O)(OC)OC)cc1 (stereo partly specified)
[1]
  pIC50: 4.86
[2]
  IC50 at 48 h: 2.17 µM
[3]
  pIC50: 4.35
[4]
  pIC50: 4.45
[5]
  pIC50: 5.16
[6]
  pIC50: 5.36
[12]
  pIC50: 3.45
[7]
  pIC50: 4.50
[8]
  pIC50: 4.10
[9]
  pIC50: 4.12
[10]
  pIC50: 4.28
[11]
  pIC50: 4.28

## CCOP(=O)(OCC)C(N[C@H](C)c1ccc(OC)cc1)c1ccc(F)cc1F (stereo partly specified)
[1]
  pIC50: 6.19
[2]
  IC50 at 48 h: 4.71 µM
[3]
  pIC50: 4.23
[4]
  pIC50: 5.11
[5]
  pIC50: 4.32
[6]
  pIC50: 5.79
[12]
  pIC50: 3.55
[7]
  pIC50: 4.36
[8]
  pIC50: 3.81
[9]
  pIC50: 4.67
[10]
  pIC50: 4.49
[11]
  pIC50: 4.27

## COc1ccc([C@@H](C)NC(c2ccccc2F)P(=O)(OC)OC)cc1 (stereo partly specified)
[1]
  pIC50: 4.80
[2]
  IC50 at 48 h: 29.1 µM
[3]
  pIC50: 5.03
[4]
  pIC50: 4.14
[5]
  pIC50: 5.89
[6]
  pIC50: 3.47
[12]
  pIC50: 3.94
[7]
  pIC50: < 3.30
[8]
  pIC50: 3.78
[9]
  pIC50: 4.36
[10]
  pIC50: 5.29
[11]
  pIC50: 5.06

## COP(=O)(OC)C(N[C@H](C)c1ccccc1)c1ccc(F)cc1F (stereo partly specified)
[1]
  pIC50: 5.61
[2]
  IC50 at 48 h: 5.24 µM
[3]
  pIC50: 4.24
[4]
  pIC50: 4.32
[5]
  pIC50: 5.06
[6]
  pIC50: 4.76
[7]
  pIC50: 4.17
[8]
  pIC50: 3.77
[9]
  pIC50: 5.26
[10]
  pIC50: 5.27
[11]
  pIC50: 3.96

## CCOP(=O)(OCC)C(N[C@H](C)c1ccc(OC)cc1)c1c(F)c(F)c(F)c(F)c1F (stereo partly specified)
[1]
  pIC50: < 3.30
[2]
  IC50 at 48 h: 27.2 µM
[3]
  pIC50: 5.03
[4]
  pIC50: 4.34
[5]
  pIC50: 5.76
[6]
  pIC50: 5.27
[12]
  pIC50: 3.38
[7]
  pIC50: 4.84
[8]
  pIC50: 4.72
[9]
  pIC50: 4.35
[10]
  pIC50: 5.41
[11]
  pIC50: 4.10

## CCOP(=O)(OCC)C(N[C@@H](C)C(C)(C)C)c1ccc(F)cc1 (stereo partly specified)
[1]
  pIC50: 4.15
[2]
  IC50 at 48 h: 13.8 µM
[3]
  pIC50: 4.96
[4]
  pIC50: 4.46
[5]
  pIC50: 4.29
[6]
  pIC50: 4.82
[7]
  pIC50: 4.19
[8]
  pIC50: 4.23
[9]
  pIC50: 4.31
[10]
  pIC50: 4.89
[11]
  pIC50: 4.61

## COP(=O)(OC)C(N[C@H](C)c1ccccc1)c1c(F)c(F)c(F)c(F)c1F (stereo partly specified)
[1]
  pIC50: 4.88
[2]
  IC50 at 48 h: 84.1 µM
[3]
  pIC50: 5.26
[4]
  pIC50: 4.26
[5]
  pIC50: 5.22
[6]
  pIC50: 4.55
[7]
  pIC50: 4.29
[8]
  pIC50: 4.03
[9]
  pIC50: 4.30
[10]
  pIC50: 5.39
[11]
  pIC50: 4.47

## CC(C)OP(=O)(OC(C)C)C(N[C@@H](C)C(C)(C)C)c1ccc(F)cc1F (stereo partly specified)
[1]
  pIC50: 3.71
[2]
  IC50 at 48 h: 47.8 µM
[3]
  pIC50: 5.11
[4]
  pIC50: 4.63
[5]
  pIC50: 4.98
[6]
  pIC50: 5.06
[7]
  pIC50: 3.83
[8]
  pIC50: 5.00
[9]
  pIC50: 4.14
[10]
  pIC50: 5.27
[11]
  pIC50: 5.40

## COc1ccc([C@@H](C)NC(c2c(F)cc(F)cc2F)P(=O)(OC)OC)cc1 (stereo partly specified)
[1]
  pIC50: 4.10
[2]
  IC50 at 48 h: 5.86 µM
[3]
  pIC50: 4.65
[4]
  pIC50: 4.88
[5]
  pIC50: 4.83
[6]
  pIC50: 5.38
[7]
  pIC50: 4.16
[8]
  pIC50: 4.57
[9]
  pIC50: 4.48
[10]
  pIC50: 4.76
[11]
  pIC50: 4.32

## CCOP(=O)(OCC)C(N[C@@H](C)C(C)(C)C)c1ccc(F)cc1F (stereo partly specified)
[1]
  pIC50: 4.32
[2]
  IC50 at 48 h: 107 µM
[3]
  pIC50: 4.98
[4]
  pIC50: 4.74
[5]
  pIC50: 4.56
[6]
  pIC50: 3.96
[7]
  pIC50: 4.45
[8]
  pIC50: 5.25
[9]
  pIC50: 4.74
[10]
  pIC50: 5.35
[11]
  pIC50: 4.31

## COc1ccc([C@@H](C)NC(c2ccc(F)cc2F)P(=O)(OC)OC)cc1 (stereo partly specified)
[1]
  pIC50: 4.00
[2]
  IC50 at 48 h: 10.6 µM
[3]
  pIC50: 5.00
[4]
  pIC50: 4.23
[5]
  pIC50: 4.55
[6]
  pIC50: 5.43
[12]
  pIC50: 3.83
[7]
  pIC50: 3.74
[8]
  pIC50: 4.96
[9]
  pIC50: 4.27
[10]
  pIC50: 5.60
[11]
  pIC50: 4.72

## COc1ccc([C@@H](C)NC(c2ccc(F)cc2F)P(=O)(OC(C)C)OC(C)C)cc1 (stereo partly specified)
[1]
  pIC50: 5.45
[2]
  IC50 at 48 h: 1.82 µM
[3]
  pIC50: 5.43
[4]
  pIC50: 4.34
[5]
  pIC50: 6.14
[6]
  pIC50: 5.03
[12]
  pIC50: 3.21
[7]
  pIC50: 4.17
[8]
  pIC50: 4.09
[9]
  pIC50: 5.54
[10]
  pIC50: 5.29
[11]
  pIC50: 5.45

## COP(=O)(OC)C(NC(C)C(C)(C)C)c1ccc(F)cc1 (racemic)
[1]
  pIC50: 3.98
[2]
  IC50 at 48 h: 90.7 µM
[3]
  pIC50: 4.40
[4]
  pIC50: 5.25
[5]
  pIC50: 4.79
[6]
  pIC50: 5.06
[7]
  pIC50: 4.34
[8]
  pIC50: 3.64
[9]
  pIC50: 5.10
[10]
  pIC50: 5.20
[11]
  pIC50: 4.78

## O=c1[nH]c(=O)n([C@H]2C[C@H](O)[C@@H](CO)O2)cc1F [FLOXURIDINE]
[1]
  pIC50: 4.61
[3]
  pIC50: 4.73
[4]
  pIC50: 4.42
[6]
  pIC50: 4.89
[8]
  pIC50: 5.25
[9]
  pIC50: 4.64
[11]
  pIC50: 4.75
